Source: patent publication US20250388575A1, “HETEROBIFUNCTIONAL COMPOUNDS AND METHODS OF TREATING DISEASE” (Halda Therapeutics OpCo, Inc., priority 2022, published 2025)
Read-outs that look alike come from different tables or passages of the source.

How the values were obtained:
BRD4-BD1 = BRD4-BD1 (Homo sapiens (Human), UniProt O60885); assay: bromoKdELECT assay for binding affinity to BRD4-BD1; conditions: 11-point 3-fold dilution
Description: (§1) Compounds were tested using a bromoKdELECT assay. T7 phage strains displaying bromodomains were grown in parallel in 24-well blocks in an E. coli host derived from the BL21 strain. E. coli were grown to log-phase and infected with T7 phage from a frozen stock (multiplicity of infection=0.4) and incubated with shaking at 32° C. until lysis (90-150 minutes). The lysates were centrifuged (5,000×g) and filtered (0.2 μm) to remove cell debris. Streptavidin-coated magnetic beads were treated with biotinylated small molecule or acetylated peptide ligands for 30 minutes at room temperature to generate affinity resins for bromodomain assays. The liganded beads were blocked with excess biotin and washed with blocking buffer (SeaBlock (Pierce), 1% BSA, 0.05% Tween 20, 1 mM DTT) to remove unbound ligand and to reduce nonspecific phage binding. Binding reactions were assembled by combining bromodomains, liganded affinity beads, and test compounds in 1× binding buffer (17% SeaBlock, 0.33×PBS, 0.04% Tween 20, 0.02% BSA, 0.004% Sodium azide, 7.4 mM DTT). Test compounds were prepared as 1000× stocks in 100% DMSO. Kds were determined using an 11-point 3-fold compound dilution series with one DMSO control point. All compounds for Kd measurements are distributed by acoustic transfer (non-contact dispensing) in 100% DMSO. The compounds were then diluted directly into the assays such that the final concentration of DMSO was 0.09%. All reactions performed in polypropylene 384-well plates. Each was a final volume of 0.02 ml. The assay plates were incubated at room temperature with shaking for 1 hour and the affinity beads were washed with wash buffer (1×PBS, 0.05% Tween 20). The beads were then resuspended in elution buffer (1×PBS, 0.05% Tween 20, 2 μM non-biotinylated affinity ligand) and incubated at room temperature with shaking for 30 minutes. The bromodomain concentration in the eluates was measured by qPCR.

BRD4-BD2 = BRD4-BD2 (Homo sapiens (Human), UniProt O60885); assay: bromoKdELECT assay for binding affinity to BRD4-BD2; conditions: 11-point 3-fold dilution
Description: as §1

[1] = tested on: T-Rex 293 cell line SC3 cells having increased expression of androgen receptor protein; assay: Cellular growth inhibition, T-Rex 293 SC3 cells with increased androgen receptor expression (doxycycline), CellTiter-Glo; assay type: cell-based; conditions: T-Rex 293 SC3 cells with increased androgen receptor expression (exposed to 10 ng/mL doxycycline), 72 hours, CellTiter-Glo; read-out: GI50
Summary of the method: (§2)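 SC3, a T-Rex 293 clone with doxycycline-inducible wild-type androgen receptor, was seeded in phenol red-free DMEM with 10% charcoal-dextran FBS, with or without 10 ng/mL doxycycline. Compound added at 24 h (0.5% DMSO) for 72 h at 37° C. CellTiter-Glo 2.0 luminescence; GI50 from four-parameter fit.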

[2] = tested on: T-Rex 293 cell line SC3 cells lacking increased expression of androgen receptor protein; assay: Cellular growth inhibition, T-Rex 293 SC3 cells lacking increased androgen receptor expression (no doxycycline), CellTiter-Glo; assay type: cell-based; conditions: T-Rex 293 SC3 cells lacking increased androgen receptor expression (not exposed to doxycycline), 72 hours, CellTiter-Glo; read-out: GI50
Summary of the method: as §2

VCaP cells = assay: Cellular growth inhibition assay for VCaP cells, CellTiter-Glo; assay type: cell-based, human; conditions: VCaP cells, 72 hours, CellTiter-Glo, read-out: GI50
Summary of the method: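 GI50 values come from four-parameter curve fits of luminescence data normalized to a zero baseline. Compound, in medium with 0.5% DMSO, was added one day after plating and left for 72 h before CellTiter-Glo 2.0 addition.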

T47D cells = assay: Cellular growth inhibition assay for T47D cells, CellTiter-Glo; assay type: cell-based, human; conditions: 72 hours treatment, CellTiter-Glo 2.0
Summary of the method: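 Luminescence from CellTiter-Glo 2.0 after 72 h of compound exposure gives the viability signal. Cells grew in insulin-supplemented (0.2 units/mL) DMEM with 10% FBS and were treated one day after seeding at 0.5% DMSO. GI50 values come from four-parameter nonlinear regression.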

Structure (SMILES) | Kd (BRD4-BD1) [µM] | Kd (BRD4-BD2) [µM] | GI50 [1] [µM] | GI50 [2] [µM] | GI50 (VCaP cells) [µM] | GI50 (VCaP cells; Homo sapiens) [µM] | GI50 (T47D cells) [µM] | GI50 (T47D cells; Homo sapiens) [µM]
Cn1cc(-c2cc(NC(=O)CCC3CCN(c4ccc(C(=O)N[C@H]5CC[C@H](Oc6ccc(C#N)c(Cl)c6)CC5)nn4)CC3)ccc2Oc2ccc(F)cc2F)c2cc[nH]c2c1=O [I-213] | 0.5 to 2.5 | 0.5 to 2.5 | < 0.5 | 0.5 to 1.5 | 1.5 to 3 | – | – | –
CCS(=O)(=O)Cc1ccc(Oc2cccc(CCCOC3CCN(c4ccc(C(=O)N[C@H]5CC[C@H](Oc6ccc(C#N)c(Cl)c6)CC5)nn4)CC3)c2F)c(-c2cn(C)c(=O)c3[nH]ccc23)c1 [I-29] | 0.05 to 0.5 | 0.05 to 0.5 | < 0.5 | < 0.5 | – | < 0.5 | – | –
CCS(=O)(=O)Nc1ccc(Oc2ccc(CCOC3CCN(c4ccc(C(=O)N[C@H]5CC[C@H](Oc6ccc(C#N)c(Cl)c6)CC5)nn4)CC3)cc2)c(-c2cn(C)c(=O)c3[nH]ccc23)c1 [I-35] | < 0.05 | < 0.05 | < 0.5 | < 0.5 | – | < 0.5 | – | –
CCS(=O)(=O)Cc1ccc(Oc2cccc(OCCCC3CCN(c4ccc(C(=O)N[C@H]5CC[C@H](Oc6ccc(C#N)c(Cl)c6)CC5)nn4)CC3)c2F)c(-c2cn(C)c(=O)c3[nH]ccc23)c1 [I-20] | 0.5 to 2.5 | 0.5 to 2.5 | < 0.5 | < 0.5 | – | < 0.5 | – | –
CCS(=O)(=O)c1ccc(Oc2ccc(OCC3CCN(c4ccc(C(=O)N[C@H]5CC[C@H](Oc6ccc(C#N)c(Cl)c6)CC5)nn4)CC3)cc2)c(-c2cn(C)c(=O)c3[nH]ccc23)c1 [I-41] | – | – | < 0.5 | < 0.5 | < 0.5 | – | < 0.5 | –
CCS(=O)(=O)c1ccc(Oc2ccc(OC3CC4(C3)CN(c3ccc(C(=O)N[C@H]5CC[C@H](Oc6ccc(C#N)c(Cl)c6)CC5)nn3)C4)c(F)c2)c(-c2cn(C)c(=O)c3[nH]ccc23)c1 [I-44] | – | – | < 0.5 | < 0.5 | – | < 0.5 | – | < 0.5
CCC1CN(c2ccc(C(=O)N[C@H]3CC[C@H](Oc4ccc(C#N)c(Cl)c4)CC3)nn2)CC1c1ccc(Oc2ccc(S(=O)(=O)CC)cc2-c2cn(C)c(=O)c3[nH]ccc23)cc1 (stereo partly shown) [I-89] | – | – | < 0.5 | > 3 | < 0.5 | – | < 0.5 | –
Cn1cc(-c2cc(N3CCCCS3(=O)=O)ccc2Oc2ccc(CCC3CCN(c4ccc(C(=O)NC5CCC(Oc6ccc(C#N)c(Cl)c6)CC5)nn4)CC3)cc2)c2cc[nH]c2c1=O (stereo not shown) [I-246, N-[4-(3-chloro-4-cyano-phenoxy)cyclohexyl]-6-[4-[2-[4-[4-(1,1-dioxothiazinan-2-yl)-2-(6-methyl-7-oxo-1H-pyrrolo[2,3-c]pyridin-4-yl)phenoxy]phenyl]ethyl]-1-piperidyl]pyridazine-3-carboxamide] | – | – | < 0.5 | < 0.5 | < 0.5 | – | < 0.5 | –
CCS(=O)(=O)c1ccc(Oc2ccc(CC3CC4(CCN(c5ccc(C(=O)N[C@H]6CC[C@H](Oc7ccc(C#N)c(Cl)c7)CC6)nn5)CC4)C3)c(F)c2)c(-c2cn(C)c(=O)c3[nH]ccc23)c1 [I-81] | – | – | < 0.5 | < 0.5 | – | < 0.5 | – | < 0.5
CCS(=O)(=O)c1ccc(Oc2ccc(CN3CC4(C3)CN(c3ccc(C(=O)N[C@H]5CC[C@H](Oc6ccc(C#N)c(Cl)c6)CC5)nn3)C4)c(F)c2)c(-c2cn(C)c(=O)c3[nH]ccc23)c1 [I-74] | – | – | < 0.5 | < 0.5 | – | < 0.5 | – | < 0.5
Cn1cc(-c2cc(C(C)(C)O)ccc2Oc2ccc(CN3CC4(C3)CN(c3ccc(C(=O)N[C@H]5CC[C@H](Oc6ccc(C#N)c(Cl)c6)CC5)nn3)C4)cc2)c2cc[nH]c2c1=O [I-123] | – | – | < 0.5 | 0.5 to 1.5 | – | < 0.5 | – | < 0.5
CCS(=O)(=O)c1ccc(Oc2ccc(CC3CC4(CCN(c5ccc(C(=O)N[C@H]6CC[C@H](Oc7ccc(C#N)c(Cl)c7)CC6)nn5)CC4)C3)cc2)c(-c2cn(C)c(=O)c3[nH]ccc23)c1 [I-86] | – | – | < 0.5 | < 0.5 | – | < 0.5 | – | < 0.5
Cn1cc(-c2cc(S(C)(=O)=O)ccc2Oc2cccc(CCCC3CCN(c4ncc(C(=O)N[C@H]5CC[C@H](Oc6ccc(C#N)c(Cl)c6)CC5)cn4)CC3)c2)c2cc[nH]c2c1=O [I-233] | – | – | < 0.5 | < 0.5 | < 0.5 | – | < 0.5 | –
Cn1cc(-c2cc(C(C)(C)O)ccc2Oc2ccc(CC3CN(c4ccc(C(=O)N[C@H]5CC[C@H](Oc6ccc(C#N)c(Cl)c6)CC5)nn4)C3)cc2)c2cc[nH]c2c1=O [I-131] | – | – | < 0.5 | < 0.5 | – | < 0.5 | – | < 0.5
Cn1cc(-c2cc(C(C)(C)O)ccc2Oc2ccc(CCC3CCN(c4ccc(C(=O)N[C@H]5CC[C@H](Oc6ccc(C#N)c(Cl)c6)CC5)nn4)CC3)c(F)c2)c2cc[nH]c2c1=O [I-113] | – | – | < 0.5 | > 3 | < 0.5 | – | 0.5 to 1.5 | –
Cn1cc(-c2cc(N3CCCS3(=O)=O)ccc2Oc2ccc(CCC3CCN(c4ccc(C(=O)NC5CCC(Oc6ccc(C#N)c(Cl)c6)CC5)nn4)CC3)cc2)c2cc[nH]c2c1=O (stereo not shown) [I-239, N-[4-(3-chloro-4-cyano-phenoxy)cyclohexyl]-6-[4-[2-[4-[4-(1,1-dioxo-1,2-thiazolidin-2-yl)-2-(6-methyl-7-oxo-1H-pyrrolo[2,3-c]pyridin-4-yl)phenoxy]phenyl]ethyl]-1-piperidyl]pyridazine-3-carboxamide] | – | – | < 0.5 | < 0.5 | – | < 0.5 | – | < 0.5
CCS(=O)(=O)c1ccc(Oc2cccc(CCCOC3CC4(C3)CN(c3cnc(C(=O)N[C@H]5CC[C@H](Oc6ccc(C#N)c(Cl)c6)CC5)cn3)C4)c2F)c(-c2cn(C)c(=O)c3[nH]ccc23)c1 [I-48] | – | – | < 0.5 | < 0.5 | – | 0.5 to 1.5 | – | < 0.5
Cn1cc(-c2cc(C(C)(C)O)ccc2Oc2ccc(CCC3CN(c4ccc(C(=O)N[C@H]5CC[C@H](Oc6ccc(C#N)c(Cl)c6)CC5)nn4)C3)cc2)c2cc[nH]c2c1=O [I-129] | – | – | < 0.5 | < 0.5 | < 0.5 | – | < 0.5 | –
Cn1cc(-c2cc(C(C)(C)O)ccc2Oc2ccc(CCCCC3CN(c4ccc(C(=O)N[C@H]5CC[C@H](Oc6ccc(C#N)c(Cl)c6)CC5)nn4)C3)cc2)c2cc[nH]c2c1=O [I-133] | – | – | < 0.5 | 0.5 to 1.5 | < 0.5 | – | < 0.5 | –
CCS(=O)(=O)c1ccc(Oc2ccc(CCC3C4CN(c5ccc(C(=O)N[C@H]6CC[C@H](Oc7ccc(C#N)c(Cl)c7)CC6)nn5)CC34)cc2)c(-c2cn(C)c(=O)c3[nH]ccc23)c1 (stereo partly shown) [I-70] | – | – | < 0.5 | < 0.5 | < 0.5 | – | < 0.5 | –
Cn1cc(-c2cc(C(C)(C)O)ccc2Oc2ccc(CCCC3CCN(c4ccc(C(=O)N[C@H]5CC[C@H](Oc6ccc(C#N)c(Cl)c6)CC5)nn4)C3)cc2)c2cc[nH]c2c1=O (stereo partly shown) [I-135] | – | – | < 0.5 | < 0.5 | – | < 0.5 | – | < 0.5
Cn1cc(-c2cc(C(C)(C)O)ccc2Oc2ccc(CCC3CCN(c4ccc(C(=O)N[C@H]5CC[C@H](Oc6ccc(C#N)c(Cl)c6)CC5)nn4)CC3)c(F)c2F)c2cc[nH]c2c1=O [I-112] | – | – | < 0.5 | > 3 | 0.5 to 1.5 | – | 0.5 to 1.5 | –
CCS(=O)(=O)c1ccc(Oc2cc(F)c(CCC3CCN(c4ccc(C(=O)N[C@H]5CC[C@H](Oc6ccc(C#N)c(Cl)c6)CC5)nn4)CC3)c(F)c2)c(-c2cn(C)c(=O)c3[nH]ccc23)c1 [I-49] | – | – | < 0.5 | < 0.5 | < 0.5 | – | 1.5 to 3 | –
Cn1cc(-c2cc(C(C)(C)O)ccc2Oc2ccc(CCC3C4CN(c5ccc(C(=O)N[C@H]6CC[C@H](Oc7ccc(C#N)c(Cl)c7)CC6)nn5)CC34)cc2)c2cc[nH]c2c1=O (stereo partly shown) [I-134] | – | – | < 0.5 | > 3 | < 0.5 | – | < 0.5 | –
